Legend:
Assay type in all cases: cell-based
[1] = test system: TNFα expression in ESdM cells; experiment: ELISA assay: TNFα expression in ESdM cells stimulated with LPS and NECA or adenosine; details: for IC50: 24 h, LPS-induced TNFα expression in the presence of NECA (100 nM NECA, 100 ng/ml LPS), read-out: EC50 (the source's name); for TNF alpha expression: 100 nM NECA, various antagonist concentrations; for functional character at human A2B adenosine receptors: conclusion from the ELISA functional experiment
Protocol: With the ELISA assay in Fig. 5 the effects of adenosine receptor antagonists were investigated. […] In the presence of the antagonists to be investigated, the influence on the TNFα expression was analyzed. The cytokine expression was determined in the ELISA.
The determined EC50 concentration amounted to 60 nM. ESdM cells were stimulated with 100 nM of NECA and 100 ng/ml of LPS, and the A2B antagonist 1a was added to the stimulated cells at various concentrations for 24 h. The supernatants of the cells were investigated for TNFα expression in an ELISA.
Example 53: ELISA Assay The ELISA assay was used to investigate the effects of adenosine antagonists. […] In the presence of the antagonists to be investigated, their influence on TNFα expression was analyzed. The cytokine expression was determined in the ELISA (Fig. 5).
To evaluate, whether ESdM cells can be stimulated by Adenosine 3 x 10^5 ESdM cells were seeded in 12 wells. The next day the cells have been stimulated with 1 µM Adenosine (Sigma-Aldrich) and different concentrations of LPS (10 ng/ml, 100 ng/ml and 500 ng/ml, Sigma-Aldrich). Supernatants were collected 24 hours later and were analysed for TNFα expression in an ELISA (EBioscience). As shown here (Fig. 6A), ESdM cells are sensitive for stimulation with 1 µM adenosine. Best results are achieved with a LPS concentration of 100 ng/ml, whereas 500 ng/ml of LPS provide […] detectable TNFα values.
To examine, if ESdM cells can also be stimulated with the synthetic adenosine receptor agonist NECA, ESdM cells were seeded in 12 wells in the same concentration as mentioned before. These cells were treated with different concentrations of NECA (1 µM and 100 nM) and 100 ng/ml LPS. The next day supernatants were collected and analysed for TNFα expression.
To analyse the effect of the A2B antagonist 1a, 3 x 10^5 ESdM cells were seeded in 12 wells. The next day cells were stimulated with 100 nM NECA, 100 ng/ml LPS and various concentrations (10 pM-10 nM) of A2B-receptor antagonist 1a Supernatants of the cells were investigated for TNFα expression in an ELISA.

[2] = molecular target: T1, human adenosine A2B receptor (Homo sapiens, UniProt P29275); experiment: cAMP assay in CHO cells recombinantly expressing the human adenosine A2B receptor (NECA dose-response curve shift); details: for NECA-induced increase in cAMP formation / mode of antagonism (NECA curve shifted to the right): single antagonist concentration, ~5-fold of the Ki value
T1 construct: expressed in transfected cells; host or cells: CHO cells
T1 sequence (P29275 1-332): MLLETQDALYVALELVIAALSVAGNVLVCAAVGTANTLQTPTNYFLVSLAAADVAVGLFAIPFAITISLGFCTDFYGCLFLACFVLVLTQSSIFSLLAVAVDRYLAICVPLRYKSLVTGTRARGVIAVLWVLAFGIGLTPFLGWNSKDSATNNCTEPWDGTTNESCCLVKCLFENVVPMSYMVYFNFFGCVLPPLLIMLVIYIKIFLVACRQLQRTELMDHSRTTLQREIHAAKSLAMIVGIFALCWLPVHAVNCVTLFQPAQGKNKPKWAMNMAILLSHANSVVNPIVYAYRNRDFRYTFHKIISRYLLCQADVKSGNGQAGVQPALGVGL
Protocol: Dose-response curves for the agonist NECA were determined in the absence and in the presence of a single concentration of the new antagonists 1d and 1f, using a ∼ 5-fold concentration of the Ki-values.

[3] = molecular target: T2, human A2B receptor (Homo sapiens, UniProt P29275); experiment: cAMP assay in HEK cells recombinantly expressing the human A2B receptor
T2 construct: expressed in transfected cells; host or cells: HEK cells
T2 sequence (P29275 1-332): T1 sequence (P29275 1-332)
Protocol: Example 52: cAMP assay The preparation of cAMP binding protein was carried out as previously described by Nordstedt and Fredholm (Anal. Biochem. 1990, 189, 231-234). 5'-(N-Ethylcarboxamido)adenosine (NECA) was obtained from Sigma. For cAMP experiments HEK cells, expressed the human recombinant A2B receptor were removed from a confluent 175 cm^2 flask, transferred into a falcon tube and spun down at 200 g, 4 °C for 5 min. After removal of the supernatant, the cell pellet was resuspended in Hank's buffered saline solution (HBSS, pH 7.4). 200 µl of the cell solution (∼ 200.000 cells per well) with 2 U/ml ADA was transferred into each well of a 24-well plate. After an incubation time of 1.5 h at 37 °C, 5 % CO2, 25 µL of the phosphodiesterase (PDE) inhibitor Ro-20-1724 (40 µM f.c.), dissolved in 100 % HBSS-puffer was added to each well and incubated for 10 min at 37 °C. […] After 10 min incubation time 12.5 µl of agonist (NECA) dissolved in the same buffer as well, was added and incubated for 15 min at 37 °C. NECA was incubated in concentrations of 10 µM and 1 µM alone as an control experiment. […] Well plates were put on ice and each well was subsequently homogenised by pipetting 6-7 times up and down. Competition binding experiments were performed in a final volume of 120 µl containing 50 µl of cell lysates, 30 µl of [^3H]cAMP (f.c. 3 nM) in lysis buffer (4 mM EDTA, 0.01 % trition X-100) and 40 µl of cAMP binding protein in the same buffer (50 µg protein per vial). Total binding was determined in the absence of cold cAMP and nonspecific binding was determined in the absence of cold cAMP and without binding protein. For a cAMP standard curve 50 µl of known cAMP concentration was put instead of 50 µl cell lysate. […] Then, filters were transferred to vials, incubated for 9 h with 2.5 mL of scintillation cocktail (Beckmann Coulter), and counted in a liquid scintillation counter (Tricarb 2700TR) with a counting efficiency of ∼ 54%.

Row | IC50 ([1]; ESdM cells) [nM] | Compound | TNF alpha expression ([1]; ESdM cells, 100 ng/ml LPS) | functional character at human A2B adenosine receptors [1] | other results
1 | 1360 | C#CCn1c(=O)c2[nH]c(-c3cn(Cc4cccc(C(F)(F)F)c4)nn3)nc2n(C)c1=O [1f, 3-Methyl-1-(prop-2-ynyl)-8-(1-(3-(trifluoromethyl)-benzyl)-1H-1,2,3-triazol-4-yl)-1H-purine-2,6(3H,7H)-dione] | dose dependent decrease | confirmed as antagonists | NECA-induced increase in cAMP formation [2]: inhibited; mode of antagonism (NECA curve shifted to the right) [2]: competitive antagonism
2 |  | Nc1ncnc2c1ncn2[C@@H]1O[C@H](CO)[C@@H](O)[C@H]1O [adenosine] |  |  | stimulation of TNFα expression in ESdM cells following LPS stimulation ([1]; 1 µM adenosine, LPS 10, 100 and 500 ng/ml, 24 hours): sensitive
3 | 1110 | CCCn1c(=O)[nH]c2nc(-c3cn(Cc4cccc(C(F)(F)F)c4)nn3)[nH]c2c1=O [1d, 1-Propyl-8-(1-(3-(trifluoromethyl)benzyl)-1H-1,2,3-triazol-4-yl)-1H-purine-2,6(3H,7H)-dione] | dose dependent decrease | confirmed as antagonists | NECA-induced increase in cAMP formation [2]: inhibited; mode of antagonism (NECA curve shifted to the right) [2]: competitive antagonism
4 |  | CCNC(=O)[C@H]1O[C@@H](n2cnc3c(N)ncnc32)[C@H](O)[C@@H]1O [NECA, 5'-(N-Ethylcarboxamido)adenosine, reference compound] |  |  | stimulation of TNFα expression in ESdM cells following LPS stimulation ([1]; 1 µM and 100 nM NECA, 100 ng/ml LPS): sensitive; cAMP formation ([3]; agonist, 10 µM and 1 µM): concentration-dependent increase; cAMP formation ([2]; agonist dose-response curve): concentration-dependent increase
5 | 2600 | Cn1c(=O)c2[nH]c(-c3cn(Cc4cccc(C(F)(F)F)c4)nn3)nc2n(C)c1=O [1a, 1,3-Dimethyl-8-(1-(3-(trifluoromethyl)benzyl)-1H-1,2,3-triazol-4-yl)-1H-purine-2,6(3H,7H)-dione] | dose-dependent decrease | confirmed as antagonists | EC50 ([1]; ESdM cells, 100 nM NECA and 100 ng/ml LPS, antagonist for 24 h, TNFα in supernatant (Fig. 7A), read-out: EC50 concentration): 60 nM; NECA-induced increase in cAMP formation ([3]; NECA 10 µM and 1 µM, antagonist 5 µM): inhibited; effect on cAMP levels of the compound itself ([3]; compound alone): no effect
6 | 1090 | CCn1c(=O)c2[nH]c(-c3cn(Cc4cccc(C(F)(F)F)c4)nn3)nc2n(CC)c1=O [1b, 1,3-Diethyl-8-(1-(3-(trifluoromethyl)benzyl)-1H-1,2,3-triazol-4-yl)-1H-purine-2,6(3H,7H)-dione] | dose dependent decrease | confirmed as antagonists | 
7 | 2320 | Cn1c(=O)n(CC2CC2)c(=O)c2[nH]c(-c3cn(Cc4cccc(C(F)(F)F)c4)nn3)nc21 [1g, 1-(Cyclopropylmethyl)-3-methyl-8-(1-(3-(trifluoromethyl)benzyl)-1H-1,2,3-triazol-4-yl)-1H-purine-2,6(3H,7H)-dione] | dose dependent decrease | confirmed as antagonists | 

From EP2465859A1, “8-Triazolylxanthine derivatives, processes for their production and their use as adenosine receptor antagonists” (Life & Brain GmbH, priority 2010, dated 2012)
